Legend:
[1] = test system: BE(2)-C neuroblastoma cells; test: Neuroblastoma maturation gene expression, BE(2)-C; assay type: cell-based
Method: The following is a quick summary of the HDAC neuroblastoma maturation experiments. Adherent cells were plated into 12- or 24-well plates at 10^6 cells/well and allowed to adhere for 2-4 hours. Compounds were dispensed in DMSO at the indicated concentrations using an automated liquid handling system (Tecan D300) and incubated for the indicated times at 37° C. with 5% CO2. Cells were harvested and RNA extracted using the Qiagen RNeasy Mini Kit according to manufacture protocols. The RNA was quantified and relative expression levels were assessed using the Applied Biosystems TaqMan RNA-to-Ct Kit according to manufacture protocols using the indicated TaqMan probes.
The protocol for the maturation experiments was as follows. The day before the experiment, the cells were fed in the flask by doubling the media. The cells were then harvested by adding non-enzymatic cell dissociation media and incubating at 37° C. for 15 minutes. The cells were transferred to a 50 ml tube and pipet to create a single-cell suspension. The cells were washed with PBS buffer. The cells were then resuspended in complete media at 5×10^5 cells per ml. Next, 2 ml of cells were transferred to 24- or 12-well plates. The treatment compounds were then dispensed into each well using the D300 liquid handler. The cells were then incubated for the indicated time at 37° C. The cells were harvested by scraping the cells and transferring to a 2 ml tube. The cells were spun to form a pellet. Next, RNA was extracted using the Qiagen RNeasy Mini kit according to manufacture protocols. The RNA concentration was recorded. The relative RNA levels were assessed using the Applied Biosystems TaqMan RNA-to-Ct kit according to manufacture protocols using the indicated Taqman probes.

HDAC1 = HDAC1 (Homo sapiens (Human), UniProt Q13547); test: HDAC enzyme assay, HDAC1; assay type: biochemical
Sequence of HDAC1 (Q13547 whole entry): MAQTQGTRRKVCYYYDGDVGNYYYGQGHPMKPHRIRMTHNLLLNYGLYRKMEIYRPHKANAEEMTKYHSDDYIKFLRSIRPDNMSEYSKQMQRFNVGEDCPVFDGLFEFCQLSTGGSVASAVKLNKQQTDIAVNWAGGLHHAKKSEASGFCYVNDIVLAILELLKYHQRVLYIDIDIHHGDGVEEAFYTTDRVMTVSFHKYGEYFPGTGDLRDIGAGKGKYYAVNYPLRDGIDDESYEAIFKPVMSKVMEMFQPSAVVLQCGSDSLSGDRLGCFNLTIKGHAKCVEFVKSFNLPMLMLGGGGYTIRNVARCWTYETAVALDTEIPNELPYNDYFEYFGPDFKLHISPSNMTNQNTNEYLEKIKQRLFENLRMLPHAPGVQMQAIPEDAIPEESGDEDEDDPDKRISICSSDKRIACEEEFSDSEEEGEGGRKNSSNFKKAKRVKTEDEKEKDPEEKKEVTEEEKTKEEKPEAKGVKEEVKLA
Method: (§1) Compounds for testing were diluted in DMSO to 50 fold the final concentration and a ten point three fold dilution series was made. The compounds were diluted in assay buffer (50 mM HEPES, pH 7.4, 100 mM KCl, 0.001% Tween-20, 0.05% BSA, 20 μM TCEP) to 6 fold their final concentration. The HDAC enzymes (purchased from BPS Biosciences) were diluted to 1.5 fold their final concentration in assay buffer. The tripeptide substrate and trypsin at 0.05 μM final concentration were diluted in assay buffer at 6 fold their final concentration. The final enzyme concentrations used in these assays were 3.3 ng/ml (HDAC1), 0.2 ng/ml (HDAC2), 0.08 ng/ml (HDAC3) and 2 ng/ml (HDAC6). The final substrate concentrations used were 16 μM (HDAC1), 10 μM (HDAC2), 17 μM (HDAC3) and 14 μM (HDAC6).
(§2) Five μl of compounds and 20 μl of enzyme were added to wells of a black, opaque 384 well plate in duplicate. Enzyme and compound were incubated together at room temperature for 10 minutes. Five μ1 of substrate was added to each well, the plate was shaken for 60 seconds and placed into a Victor 2 microtiter plate reader. The development of fluorescence was monitored for 60 min and the linear rate of the reaction was calculated. The IC50 was determined using Graph Pad Prism by a four parameter curve fit.

[2] = test system: human CD34+ bone marrow cells; test: Cellular viability of cultured CD34+ bone marrow cells; details: 1 μM, treatment for 4 days
HDAC2 [3] = target: T1, HDAC2 (Homo sapiens (Human), UniProt Q92769); test: HDAC2glo assay; assay type: cell-based
T1 sequence (Q92769 whole entry): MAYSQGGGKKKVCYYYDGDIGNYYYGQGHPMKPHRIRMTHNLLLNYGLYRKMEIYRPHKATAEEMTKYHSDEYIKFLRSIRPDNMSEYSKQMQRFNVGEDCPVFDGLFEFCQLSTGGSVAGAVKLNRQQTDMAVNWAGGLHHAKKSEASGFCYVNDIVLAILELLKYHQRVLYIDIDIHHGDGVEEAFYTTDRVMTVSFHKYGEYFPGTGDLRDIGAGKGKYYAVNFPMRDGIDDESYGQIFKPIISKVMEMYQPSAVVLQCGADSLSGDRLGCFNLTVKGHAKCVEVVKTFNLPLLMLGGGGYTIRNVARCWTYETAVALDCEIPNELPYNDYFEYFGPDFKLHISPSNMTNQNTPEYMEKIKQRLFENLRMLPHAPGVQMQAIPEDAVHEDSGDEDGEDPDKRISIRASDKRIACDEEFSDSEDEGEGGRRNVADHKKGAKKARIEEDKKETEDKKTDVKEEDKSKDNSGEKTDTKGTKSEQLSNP

HDAC6 = HDAC6 (Homo sapiens (Human), UniProt Q9UBN7); test: HDAC enzyme assay, HDAC6; assay type: biochemical
Sequence of HDAC6 (Q9UBN7 whole entry): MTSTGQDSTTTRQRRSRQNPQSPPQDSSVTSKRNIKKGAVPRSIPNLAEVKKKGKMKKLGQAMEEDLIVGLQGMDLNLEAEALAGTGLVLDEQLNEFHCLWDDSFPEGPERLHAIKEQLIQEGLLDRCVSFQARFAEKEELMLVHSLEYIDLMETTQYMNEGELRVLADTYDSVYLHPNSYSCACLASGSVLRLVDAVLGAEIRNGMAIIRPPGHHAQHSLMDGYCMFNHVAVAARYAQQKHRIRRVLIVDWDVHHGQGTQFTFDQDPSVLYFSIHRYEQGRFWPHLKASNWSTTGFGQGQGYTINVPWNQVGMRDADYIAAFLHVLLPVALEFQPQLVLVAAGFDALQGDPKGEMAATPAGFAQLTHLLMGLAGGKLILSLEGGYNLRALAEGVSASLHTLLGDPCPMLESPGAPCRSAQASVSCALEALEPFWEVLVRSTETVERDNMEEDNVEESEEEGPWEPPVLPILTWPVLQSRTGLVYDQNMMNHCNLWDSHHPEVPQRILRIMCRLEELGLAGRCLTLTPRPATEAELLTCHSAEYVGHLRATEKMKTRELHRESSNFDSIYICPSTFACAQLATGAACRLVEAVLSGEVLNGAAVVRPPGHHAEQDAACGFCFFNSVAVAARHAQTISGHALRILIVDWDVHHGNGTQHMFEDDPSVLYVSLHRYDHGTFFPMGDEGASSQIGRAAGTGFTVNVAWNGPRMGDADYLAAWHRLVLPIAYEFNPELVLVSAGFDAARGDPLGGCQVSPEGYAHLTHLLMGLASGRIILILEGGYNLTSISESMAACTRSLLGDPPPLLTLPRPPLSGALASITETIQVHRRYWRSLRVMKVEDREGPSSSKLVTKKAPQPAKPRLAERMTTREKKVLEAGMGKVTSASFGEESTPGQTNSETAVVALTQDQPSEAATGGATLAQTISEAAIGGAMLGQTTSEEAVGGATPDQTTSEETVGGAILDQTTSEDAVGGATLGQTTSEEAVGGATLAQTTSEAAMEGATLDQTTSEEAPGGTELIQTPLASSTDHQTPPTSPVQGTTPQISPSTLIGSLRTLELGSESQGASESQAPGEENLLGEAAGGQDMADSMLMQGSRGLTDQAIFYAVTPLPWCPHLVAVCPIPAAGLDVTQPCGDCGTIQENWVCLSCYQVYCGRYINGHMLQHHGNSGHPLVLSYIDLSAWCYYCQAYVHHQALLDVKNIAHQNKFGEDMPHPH
Method: as §1
as §2, with “fit. The IC50 values obtained for several of the compounds of this invention are found in Table 1.” for “fit.”

HDAC2 [4] = target: T1, HDAC2; test: HDAC enzyme assay, HDAC2; assay type: biochemical
Method: as §1, §2

H929 human myeloma cells = test: In vitro cell proliferation, MTS viability; assay type: cell-based; details: up to 7 days, relative to Day 0
Method: Cellular viability was assessed using Aqueous One MTS reagent at Days 0 (immediately after seeding), 3, 5, and 7.

HDAC3 = HDAC3 (Homo sapiens (Human), UniProt O15379); test: HDAC enzyme assay, HDAC3; assay type: biochemical
Sequence of HDAC3 (O15379 whole entry): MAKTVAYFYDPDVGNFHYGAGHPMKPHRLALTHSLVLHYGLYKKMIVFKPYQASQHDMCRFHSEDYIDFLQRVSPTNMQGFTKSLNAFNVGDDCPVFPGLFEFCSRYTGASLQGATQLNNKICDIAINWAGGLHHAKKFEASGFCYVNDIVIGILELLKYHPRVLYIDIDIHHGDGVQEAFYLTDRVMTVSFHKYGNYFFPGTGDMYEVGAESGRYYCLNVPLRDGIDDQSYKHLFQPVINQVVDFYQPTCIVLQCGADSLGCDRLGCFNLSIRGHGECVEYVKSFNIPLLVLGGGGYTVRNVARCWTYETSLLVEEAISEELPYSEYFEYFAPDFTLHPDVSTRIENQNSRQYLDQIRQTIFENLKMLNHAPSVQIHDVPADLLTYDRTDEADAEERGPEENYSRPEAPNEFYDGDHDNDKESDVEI
Sequence of HDAC3 (Q9Y618 395-489 partner): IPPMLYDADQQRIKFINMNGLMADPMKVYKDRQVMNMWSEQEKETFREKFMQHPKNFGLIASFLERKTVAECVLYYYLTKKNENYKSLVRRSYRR
Method: as §1, with “The HDAC enzymes (purchased from BPS Biosciences) were diluted to 1.5 fold their final concentration in assay buffer.” left out, “(HDAC6).” for “(HDAC6). The final substrate concentrations used were 16 μM (HDAC1), 10 μM (HDAC2), 17 μM (HDAC3) and 14 μM (HDAC6).”
as §2

fetal globin (HbG) = test: Fetal globin (HbG) induction in cultured CD34+ bone marrow cells; assay type: cell-based, human; details: 1 μM, treatment for 4 days

Q: `O=C(NO)c1cnc(NC2(c3ccccc3)CCN(C(=O)Nc3ccccc3)CC2)nc1` [Compound 001, N-hydroxy-2-((4-phenyl-1-(phenylcarbamoyl)piperidin-4-yl)amino)pyrimidine-5-carboxamide] was tested. Which “fold change of genes associated with maturation” value ([1]; 2 days, 3 μM) did it give?
A: induces gene expression changes that are consistent with maturation

Q: What about the “fold change of genes associated with maturation” value ([1]; 48 hours, 0.5, 2 and 4 μM) of the same compound?
A: induces gene expression changes consistent with maturation at 4 μM, but not at 2 μM or less

Q: And the IC50 (HDAC1)?
A: 38 nM

Q: What about the “selectivity for HDAC1 and 2” value (HDAC1; relative to HDAC3) of the same compound?
A: 30 fold

Q: What about the “decrease in cells viability” value [2] of the same compound?
A: 1.2 fold

Q: And the “concentration at which maximal HDAC2 inhibition was reached” value (HDAC2 [3])?
A: 3 to 4 µM

Q: What about the IC50 (HDAC6) of the same compound?
A: 1.9 nM

Q: And the IC50 (HDAC2 [4])?
A: 34 nM

Q: And the “doses resulting in a net decrease in the viability of H929 cells” value (H929 human myeloma cells)?
A: over 3 uM

Q: And the IC50 (HDAC3)?
A: 1010 nM

Q: And the “increase in the percentage of HbG relative to other beta-like globin transcripts” value (fetal globin (HbG))?
A: 2 fold

Reference: patent US9278963B2, “Pyrimidine hydroxy amide compounds as histone deacetylase inhibitors” (Acetylon Pharmaceuticals, Inc., priority 2013, dated 2016)
